Values quoted from earlier work, collected in PMC8389614, “A Comparison of Acute Pharmacological Effects of Methylone and MDMA Administration in Humans and Oral Fluid Concentrations as Biomarkers of Exposure” (Biology, 2021).

Experiments:
5-HT1A receptor = test system: 5-HT1A receptor; set-up: method as in PMID 25237120, PMID 23583454; conditions: cited from earlier work
5-HT2A receptors = test system: 5-HT2A receptors; set-up: method as in PMID 25237120, PMID 23583454; conditions: significantly lower potencies than MDMA; cited from earlier work

Which results are given for CNC(C)C(=O)c1ccc2c(c1)OCO2 (centres unmarked) [Methylone, 3,4-methylenedioxymethcathinone]?
Activity at the 5-HT1A receptor (5-HT1A receptor): partial agonist; Affinity for binding 5-HT2A receptors (5-HT2A receptors): some affinity
